The values that follow come from US7575882B2, “Compositions and methods for identifying modulators of TRPV2” (Janssen Pharmaceutica N. V., priority 2005, dated 2009).

Where two headings read alike, the source gives them in different places.

For one experiment, the target named is T1, rat TRPV2 (Rattus norvegicus, UniProt Q9WUD2, A713V/L151P/T158I).
T1 construct: A cDNA fragment encoding the full-length rat TRPV2 was subcloned into pCI-neo; expressed in transfected cells
T1 sequence (Q9WUD2 1-761 L151P/T158I/A713V): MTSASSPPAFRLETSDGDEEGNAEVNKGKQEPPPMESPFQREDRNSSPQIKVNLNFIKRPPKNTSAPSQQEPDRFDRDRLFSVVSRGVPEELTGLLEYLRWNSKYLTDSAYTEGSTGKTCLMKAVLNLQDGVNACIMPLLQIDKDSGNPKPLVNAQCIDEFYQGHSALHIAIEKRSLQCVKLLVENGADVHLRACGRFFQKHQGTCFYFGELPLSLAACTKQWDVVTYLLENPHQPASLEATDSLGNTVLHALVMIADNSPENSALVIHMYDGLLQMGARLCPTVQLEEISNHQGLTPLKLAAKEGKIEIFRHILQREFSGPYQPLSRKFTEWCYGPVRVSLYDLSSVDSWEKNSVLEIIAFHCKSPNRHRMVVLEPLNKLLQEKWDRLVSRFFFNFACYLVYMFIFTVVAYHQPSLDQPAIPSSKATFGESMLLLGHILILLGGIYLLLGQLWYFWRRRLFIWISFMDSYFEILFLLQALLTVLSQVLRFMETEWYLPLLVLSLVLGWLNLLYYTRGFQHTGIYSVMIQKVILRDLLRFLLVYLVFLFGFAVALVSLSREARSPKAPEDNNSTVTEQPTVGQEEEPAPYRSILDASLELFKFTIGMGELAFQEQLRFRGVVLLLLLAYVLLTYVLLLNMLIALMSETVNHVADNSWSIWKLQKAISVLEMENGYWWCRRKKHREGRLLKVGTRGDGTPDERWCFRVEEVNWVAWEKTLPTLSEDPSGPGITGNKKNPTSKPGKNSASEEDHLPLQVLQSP
The experiment is described as follows: FLIPR calcium mobilization assay in rat TRPV2-expressing HEK293 cells. It is filed as cell-based. The procedure: A cDNA fragment encoding the full-length rat TRPV2 was subcloned into pCI-neo (Promega, Madison, Wis.) mammalian expression vector. The expression construct was then transfected into HEK293 cells with FuGene6 transfection reagent (Roche, Indianapolis, Ind.) according to the vendor's protocol. Stable cell lines were selected by growth in the presence of 400 μg/ml G418. Single G418 resistant clones were isolated and purified.
The rat TRPV2-expressing HEK293 cells were seeded in a 384-well plate at a concentration of 5×10^3 cells/well and incubated overnight at 37° C. The following day, the cells were loaded with buffer and calcium dye 3 (Molecular Devices, Sunnyvale, Calif.) in a final volume of 50 μl and incubated for 30 minutes at 37° C./5% CO2 followed by 30 additional minutes at room temperature. The fluorescence intensity was measured by a fluorescent plate reader (FLIPR) before, during and after the addition of test compounds.
All data was normalized to that observed for 100 μM Δ^9-THC.
In general terms: Calcium assays in cells follow changes in intracellular calcium, usually with a dye or a luminescent sensor.

Experiment [1] concerns deletion mutants of rat TRPV2. The experiment in a line: Calcium mobilization in HEK293 cells expressing rat TRPV2 deletion mutants. The conditions noted are these: mutants lacking N-terminal 20, 32/33, 65/66 or C-terminal 11, 23, 32 residues. Type of experiment: cell-based. From the text: DNA molecules encoding the deletion mutants were amplified by PCR using the rat TRPV2 cDNA as the template. For amino-terminal deletions, a series N-terminal forward primers encoding an initiating methionine in frame with sequences matching adjacent regions of the desired start at residues G21 (mutant N20, SEQ ID NO:11), P33 (N32, SEQ ID NO:12), A66 (N65, SEQ ID NO:13) and V84 (N83, SEQ ID NO:14) paired with a C-terminal reverse primer were used for PCR amplification. While for carboxyl-terminal deletions, a forward N-terminal primer paired with a series C-terminal reverse primers ending at residues R706 (C51, SEQ ID NO:7), P729 (C32, SEQ ID NO:8), P738 (C23, SEQ ID NO:9) and E750 (C11, SEQ ID NO:10) with an in-frame stop codon at the terminal end of the open reading frame were used for amplification. After PCR amplification and purification, the DNA molecules encoding the deletion mutants were subcloned into the pCI-neo mammalian expression vector and the constructs were confirmed by DNA sequencing. […]
The deletion mutant constructs were then transfected into HEK293 cells using Fugene 6 reagent (Roche) as per the manufacturer's instructions. […] Calcium mobilization was triggered using Δ^9-THC or 2-APB or elevated temperature buffer and measured using either FLIPR or FLEX STATION instruments.

The target in experiment [2] is T2, rat and human TRPV2 chimera RHR (Rattus norvegicus, UniProt Q9WUD2, A398L/D418K/D570G/D595E/E431N/E493A/E569T/E577V/E585D/F395L/F429V/I422A/INS586GN/K566E/L151P/L436T/L450V/L461V/L478F/L485V/L503S/M468I/M492L/N571P/P420Q/P587G/P589Q/Q419K/R460H/R490C/R560Q/R563W/R617H/S416T/S424H/S425L/S504A/S564R/S573A/S592G/T428E/T494I/T576S/T580M/V402I/V409A/V543I/V575E/V581E/V621M/V635I/Y400N).
T2 construct: expressed in transfected cells; host or cells: HEK293, transient, pCI-neo
The experiment is described as follows: Calcium mobilization in HEK293 cells expressing TRPV2 chimera RHR. It is filed as cell-based. The conditions noted are these: transient expression in HEK293. As for the experimental part: The deletion mutant constructs were then transfected into HEK293 cells using Fugene 6 reagent (Roche) as per the manufacturer's instructions. At 24 hours post-transfection, the cells were harvested and replated in fresh DMEM medium supplemented with 10% fetal bovine serum, 100 units/ml penicillin, and 100 μg/ml streptomycin. The cells were distributed onto poly-D-Lysine coated 96-or 384-well plates at a density of approximately 40,000 and 10,000 cells per well, respectively. At approximately 48 hours post-transfection, the medium was removed from the assay plate and replaced with Calcium 3 Dye Buffer (Molecular Devices) using the protocol available from the manufacturer. Calcium mobilization was triggered using Δ^9-THC or 2-APB or elevated temperature buffer and measured using either FLIPR or FLEX STATION instruments.
Based on the predicted topology and primary sequence features of TRPV2, TRPV2 are divided into 3 major domains: 1) the amino-terminal intracellular domain; 2) the transmembrane domain; and 3) the carboxyl-terminal intracellular domain. For a chimera, each domain can be of rat (R) or human (H) origin. Three rat and human TRPV2 chimera were constructed and tested herein. RRH (SEQ ID NO:15) was a chimera comprising rat 1-392 aa, rat 393-646 aa, and human 647-764 aa. RHR (SEQ ID NO:16) was a chimera comprising rat 1-392, human 391-646, and rat 647-761. HRR (SEQ ID NO:17) was a chimera comprising human 1-390, rat 393-646, and rat 647-761.
DNA molecules encoding the three rat and human TRPV2 chimeras were obtained by fusion PCR. First, DNA molecules encoding the desired TRPV2 domains were amplified by PCR using the rat or human TRPV2 cDNA as the template with synthetic primer DNA containing in-frame sequence that overlapped with the other species domain to be linked. After PCR amplification and purification, DNA molecules encoding the desired TRPV2 domains from human and rat were combined and used as templates for fusion PCR with primer DNA matching the 5′ and 3′ end sequences of the coding sequence for the full length TRPV2 chimera. […]

The target of the next experiment is T3, human TRPV1 (Homo sapiens, UniProt Q8NER1).
T3 construct: expressed in transfected cells; host or cells: HEK293
The experiment in a line: FLIPR assay in HEK293 cells expressing human TRPV1. It is filed as cell-based. Particulars: Δ^9-THC 240 μM, cannabinol 600 μM, others 120 μM. As for the experimental part: A selected number of cannabinoids were also tested against HEK293 cells expressing human TRPV1 and canine TRPM8 in the FLIRP assay.

Another experiment has as its target CB2 receptor. Particulars: cited from earlier work.
Setting [3] is: 100 μM compound (anandamide 120 μM); normalized to 100 μM Δ^9-THC.
[4] abbreviates: FLIPR, rat TRPV2-expressing HEK293 cells; read-out: EC50 (activation of rat TRPV2).
[5] abbreviates: HEK293; read-out: % Response (activation of rat TRPV2).

By EC50 is commonly meant the midpoint of the concentration-response curve. Consider 2-aminoethoxydiphenyl borate [2-APB], for which the “% Response (activation of rat TRPV2)” value on rat TRPV2 (setting [3]) amounted to 102%. Also, the EC50 at rat TRPV2 (setting [4]) is 8 µM. For the same compound, the “response of rat TRPV2 deletion mutants to the compound” value in experiment [1] is reported as “still active”. The “response of chimera RHR to the compound” value in experiment [2] was “active”.

One may read the Ki as the dissociation constant of the complex between target and ligand, obtained from inhibition or displacement. Take `CCCCC/C=C\C/C=C\C/C=C\C/C=C\CCCC(=O)OC(CO)CO` [2-AG, 2-arachidonylglycerol]: the Emax at 100 µM at rat TRPV2 (setting [5]) is 30%. Moreover, the “activation of TRPV1” value at human TRPV1 was “activated”. The Ki at CB2 receptor is 1.4 µM.

Turning to `CCCCC/C=C\C/C=C\C/C=C\C/C=C\CCCC(=O)Nc1ccc(O)cc1` [AM404], the Emax at 100 µM on rat TRPV2 (setting [5]) came out at 6%. Besides, at human TRPV1, the “activation of TRPV1” value is “activated”.

Consider `CCCCC/C=C\C/C=C\C/C=C\C/C=C\CCCC(=O)NCCO` [Anandamide, N-arachidonoylethanolamine], for which, on rat TRPV2, the “activation effect on TRPV2” value is recorded as “no or minimal activation effect”. Further, the Emax at 100 µM at rat TRPV2 (setting [5]) turned out to be 0%. Moreover, the “activation of TRPV1” value on human TRPV1 is recorded as “activated”. At CB2 receptor, the Ki was 1.93 µM.

As to `C=C(C)[C@@H]1CCC(C)=C[C@H]1c1c(O)cc(O)cc1CCCCC` [CAY10429], the Emax at 100 µM at rat TRPV2 (setting [5]) was found to be 0%.

In the case of `CCCCCCC(C)(C)c1ccc(C2CC(O)CCC2CCCO)c(O)c1` (stereo not drawn) [CP55,940], the Emax at 100 µM at rat TRPV2 (setting [5]) was found to be 43%.

Consider `CCCCCc1cc(O)c2c(c1)OC(C)(C)c1ccc(C)cc1-2` [Cannabinol], for which the half-maximal effective concentration (EC50) on rat TRPV2 (setting [4]) stood at 77.7 µM. Also, the Emax at 100 µM at rat TRPV2 (setting [5]) is 68%. In addition, on human TRPV1, the “activation of TRPV1” value is “no significant activation”.

For the compound `CCCCCCC(C)(C)c1cc(O)c2c(c1)OC(C)(C)[C@H]1CC=C(CO)C[C@H]21` [HU-211], at rat TRPV2 (setting [5]), the Emax at 100 µM worked out at 31%.

Turning to `CCCCCCC(C)(C)c1cc(OC)c(C2C=C(CO)[C@H]3CC2C3(C)C)c(OC)c1` (stereo partly drawn) [HU-308], the Emax at 100 µM at rat TRPV2 (HEK293, read-out: % Response (activation of rat TRPV2)) came out at 10%.

Regarding `C=C(C)[C@@H]1CCC(C)=C[C@H]1C1=C(O)C(=O)C(CCCCC)=CC1=O` [HU-331], the EC50 at rat TRPV2 (setting [4]) is about 14 µM. In addition, the Emax at 100 µM at rat TRPV2 (setting [5]) came to 47%.

With `CCCn1c(C)c(C(=O)c2cccc3ccccc23)c2ccccc21` [JWH015], at rat TRPV2 (setting [5]), the Emax at 100 µM turned out to be 14%.

Turning to `CCCC(C)(C)c1ccc2c(c1)OC(C)(C)[C@@H]1CC=C(C)C[C@@H]21` [JWH-133], the Emax at 100 µM on rat TRPV2 (setting [5]) turned out to be 5%.

For the compound `C=C(C)[C@@H]1CCC(C)=C[C@H]1c1c(O)cc(C)cc1O` [O-1821], the concentration for a half-maximal effect (EC50) on rat TRPV2 (setting [4]) was about 20 µM. Moreover, the Emax at 100 µM on rat TRPV2 (setting [5]) was 95%.

Regarding `C=C(C)[C@@H]1CCC(C)=CC1c1c(OC)cc(C)cc1OC` (stereo partly drawn) [O-1918], the Emax at 100 µM on rat TRPV2 (setting [5]) was 6%.

As for `CCCCCCCCCCCCCCCC(=O)NCCO` [PEA, palmitoylethanolamide], the Emax at 100 µM at rat TRPV2 (setting [5]) was found to be 5%.

`Cc1c(C(=O)c2cccc3ccccc23)c2cccc3c2n1C(CN1CCOCC1)CO3` (stereo not drawn) [WIN 55,212-3]: the Emax at 100 µM on rat TRPV2 (setting [5]) worked out at 7%.

For the compound `Cc1cc2cccc3c2n1C(CN1CCOCC1)[C@H](C(=O)c1cccc2ccccc12)O3` (stereo partly drawn) [WIN-55,212-2], at rat TRPV2 (setting [5]), the Emax at 100 µM is -2%.

In the case of Cannabidiol, on rat TRPV2 (setting [3]), the “% Response (activation of rat TRPV2)” value was 163%. Also, the EC50 at rat TRPV2 (setting [4]) was 3.7 µM.

As for Nabilone, on rat TRPV2 (setting [3]), the “% Response (activation of rat TRPV2)” value was 59%.
